# Assay results published in US20200060276A1, “THIAZOLE COMPOUND AND HERBICIDE” (OAT Agrio Co., Ltd., priority 2017, published 2020).
# Tests used:
# Assay type in all cases: in vivo
# [1] = tested on: Echinochloa crus-galli (L.) P. Beauv. var. formosensis Ohwi; test: Test for Herbicidal Effect in Flooding Treatment (#1), ECHDG; settings: flooding treatment at seeding, dose 2 kg/ha, visual observation on day 21
# Outline: (§1)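 Visual scores from 0 (<10% inhibition) to 5 (≥90% or complete withering) were taken 21 days after treatment of glasshouse-grown plants. Seeds were sown in soil flooded for 24 h beforehand, and compound was applied dropwise onto the surface at 2 kg/ha as an acetone solution diluted in water with Tween 80.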
# Scirpus juncoides = test: Test for Herbicidal Effect in Flooding Treatment (#1), SCIJU; settings: flooding treatment at seeding, dose 2 kg/ha, visual observation on day 21
# Outline: as §1
# Cyperus microiria = test: Test for Herbicidal Effect in Flooding Treatment (#1), CYMIC; settings: flooding treatment at seeding, dose 2 kg/ha, visual observation on day 21
# Outline: as §1
# [2] = tested on: Echinochloa crus-galli (L.) P. Beauv. var. formosensis Ohwi; test: Test for Herbicidal Effect in Flooding Treatment (#2), ECHDG at 2-2.5 leaf stage; settings: flooding treatment at 2-2.5 leaf stage, dose 0.2 kg/ha, visual observation on day 21
# Outline: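 Flooded muddy soil was seeded with the weed, and at 2–2.5 leaf stage compound in acetone/Tween 80 water was dropped on the water surface at 0.2 kg/ha. Plants were kept in a glasshouse and scored visually on day 21 from 0 (<10% growth inhibition) to 5 (≥90% or complete withering).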
Structure (SMILES),ECHDG #1 herbicidal effect (growth inhibition grade) [1],SCIJU #1 herbicidal effect (growth inhibition grade) (Scirpus juncoides),CYMIC #1 herbicidal effect (growth inhibition grade) (Cyperus microiria),ECHDG (2-2.5L) #2 herbicidal effect (growth inhibition grade) [2]
COCOc1cc(F)c(CS(=O)(=O)c2ncc(Cl)s2)c(F)c1 [Compound 1C-118],"5 (Growth inhibition effect is equal to or greater than 90%, or complete withering is achieved)","5 (Growth inhibition effect is equal to or greater than 90%, or complete withering is achieved)","5 (Growth inhibition effect is equal to or greater than 90%, or complete withering is achieved)","4 (Growth inhibition effect is equal to or greater than 70%, and less than 90%)"
COc1ccc(CS(=O)(=O)c2ncc(Cl)s2)c(OC)c1 [Compound 1C-125],"5 (Growth inhibition effect is equal to or greater than 90%, or complete withering is achieved)","5 (Growth inhibition effect is equal to or greater than 90%, or complete withering is achieved)","5 (Growth inhibition effect is equal to or greater than 90%, or complete withering is achieved)","5 (Growth inhibition effect is equal to or greater than 90%, or complete withering is achieved)"
CCOc1c(Br)cc(Cl)cc1CS(=O)(=O)c1ncc(Cl)s1 [Compound 1C-24],"5 (Growth inhibition effect is equal to or greater than 90%, or complete withering is achieved)","5 (Growth inhibition effect is equal to or greater than 90%, or complete withering is achieved)","5 (Growth inhibition effect is equal to or greater than 90%, or complete withering is achieved)","5 (Growth inhibition effect is equal to or greater than 90%, or complete withering is achieved)"
COc1cc(CS(=O)(=O)c2ncc(Cl)s2)ccc1C [Compound 1C-68],"5 (Growth inhibition effect is equal to or greater than 90%, or complete withering is achieved)","5 (Growth inhibition effect is equal to or greater than 90%, or complete withering is achieved)","5 (Growth inhibition effect is equal to or greater than 90%, or complete withering is achieved)","4 (Growth inhibition effect is equal to or greater than 70%, and less than 90%)"
COc1cc(CS(=O)(=O)c2ncc(Cl)s2)cc(OC)c1OC [Compound 1C-128],"5 (Growth inhibition effect is equal to or greater than 90%, or complete withering is achieved)","4 (Growth inhibition effect is equal to or greater than 70%, and less than 90%)","5 (Growth inhibition effect is equal to or greater than 90%, or complete withering is achieved)","1 (Growth inhibition effect is equal to or greater than 10%, and less than 30%)"
COc1c(F)c(F)cc(CS(=O)(=O)c2ncc(Cl)s2)c1F [Compound 1C-74],"5 (Growth inhibition effect is equal to or greater than 90%, or complete withering is achieved)","5 (Growth inhibition effect is equal to or greater than 90%, or complete withering is achieved)","5 (Growth inhibition effect is equal to or greater than 90%, or complete withering is achieved)","3 (Growth inhibition effect equal to or greater than 50%, and less than 70%)"
COc1ccc(CS(=O)(=O)c2ncc(Cl)s2)cc1 [Compound 1C-87],"5 (Growth inhibition effect is equal to or greater than 90%, or complete withering is achieved)","5 (Growth inhibition effect is equal to or greater than 90%, or complete withering is achieved)","5 (Growth inhibition effect is equal to or greater than 90%, or complete withering is achieved)","1 (Growth inhibition effect is equal to or greater than 10%, and less than 30%)"
CCOc1cc(F)c(CS(=O)(=O)c2ncc(Cl)s2)c(F)c1 [Compound 1C-103],"5 (Growth inhibition effect is equal to or greater than 90%, or complete withering is achieved)","5 (Growth inhibition effect is equal to or greater than 90%, or complete withering is achieved)","5 (Growth inhibition effect is equal to or greater than 90%, or complete withering is achieved)","5 (Growth inhibition effect is equal to or greater than 90%, or complete withering is achieved)"
CCOc1ccc(Br)cc1CS(=O)(=O)c1ncc(Cl)s1 [Compound 1C-17],"5 (Growth inhibition effect is equal to or greater than 90%, or complete withering is achieved)","5 (Growth inhibition effect is equal to or greater than 90%, or complete withering is achieved)","5 (Growth inhibition effect is equal to or greater than 90%, or complete withering is achieved)","5 (Growth inhibition effect is equal to or greater than 90%, or complete withering is achieved)"
CCOc1ccc(C)cc1CS(=O)(=O)c1ncc(Cl)s1 [Compound 1C-18],"5 (Growth inhibition effect is equal to or greater than 90%, or complete withering is achieved)","5 (Growth inhibition effect is equal to or greater than 90%, or complete withering is achieved)","5 (Growth inhibition effect is equal to or greater than 90%, or complete withering is achieved)","5 (Growth inhibition effect is equal to or greater than 90%, or complete withering is achieved)"
COc1cccc(CS(=O)(=O)c2ncc(Cl)s2)c1OC [Compound 1C-124],"5 (Growth inhibition effect is equal to or greater than 90%, or complete withering is achieved)","5 (Growth inhibition effect is equal to or greater than 90%, or complete withering is achieved)","5 (Growth inhibition effect is equal to or greater than 90%, or complete withering is achieved)","4 (Growth inhibition effect is equal to or greater than 70%, and less than 90%)"
CCOc1ccc(Cl)c(CS(=O)(=O)c2ncc(Cl)s2)c1 [Compound 1C-80],"5 (Growth inhibition effect is equal to or greater than 90%, or complete withering is achieved)","5 (Growth inhibition effect is equal to or greater than 90%, or complete withering is achieved)","5 (Growth inhibition effect is equal to or greater than 90%, or complete withering is achieved)","5 (Growth inhibition effect is equal to or greater than 90%, or complete withering is achieved)"
